According to patent US20250353852A1, “COMPOUNDS AND COMPOSITIONS THAT INHIBIT PIKFYVE” (Kineta, Inc., priority 2021, published 2025):

Target: full-length human PIKFYVE (Homo sapiens (Human), UniProt Q9Y2I7, L932S/Q1183K/Q995L/S1033A/S696N/T998S)
Test: PIKfyve biochemical assay (ADP-Glo Kinase assay, Carna Biosciences)
Conditions: class symbols
Source text: PIKfyve Biochemical Assay. The biochemical […] inhibition assays were run by Carna Biosciences according to proprietary methodology based on the Promega […] Kinase assay. […] NP_055855.2] was expressed as N-terminal GST-fusion protein (265 kDa) using baculovirus expression system. GST-PIKFYVE was purified by using glutathione sepharose chromatography and used in an ADP-GloTM Kinase assay (Promega). Reactions were set up by adding the test compound solution, substrate solution, ATP solution and kinase solution, each at 4× final concentrations. Reactions were prepared with assay buffer (50 mM MOPS, 1 mM DTT, pH7.2), mixed, and incubated in black 384 well polystyrene plates for 1 hour at room temperature. ADP-Glo^TM reagent was then added for 40 minutes, followed by kinase detection reagent for an additional 40 minutes. The kinase activity was evaluated by detecting relative light units on a luminescence plate reader. […] IC50 values were calculated from concentration vs % inhibition curves by fitting to a four-parameter logistic curve. […] The biochemical […] inhibition assays were run by Carna Biosciences according to proprietary methodology based on the Promega ADP-GloTM Kinase assay. […] GST-PIKFYVE was purified by using glutathione sepharose chromatography and used in an ADP-GIoTM Kinase assay (Promega). Reactions were set up by adding the test compound solution, substrate solution, ATP solution and kinase solution, each at 4× final concentrations. Reactions were prepared with assay buffer (50 mM MOPS, 1 mM DTT, pH7.2), mixed, and incubated in black 384 well polystyrene plates for 1 hour at room temperature. ADP-GIoTM reagent was then added for 40 minutes, followed by kinase detection reagent for an additional 40 minutes. The kinase activity was evaluated by detecting relative light units on a luminescence plate reader. […] IC50 values were calculated from concentration vs % inhibition curves by fitting to a four-parameter logistic curve. […] The same compounds were also tested in both FAB1 and PIKFYVE TDP-43 yeast models.

Sequence of full-length human PIKFYVE (Q9Y2I7 whole entry S696N/L932S/Q995L/T998S/S1033A/Q1183K): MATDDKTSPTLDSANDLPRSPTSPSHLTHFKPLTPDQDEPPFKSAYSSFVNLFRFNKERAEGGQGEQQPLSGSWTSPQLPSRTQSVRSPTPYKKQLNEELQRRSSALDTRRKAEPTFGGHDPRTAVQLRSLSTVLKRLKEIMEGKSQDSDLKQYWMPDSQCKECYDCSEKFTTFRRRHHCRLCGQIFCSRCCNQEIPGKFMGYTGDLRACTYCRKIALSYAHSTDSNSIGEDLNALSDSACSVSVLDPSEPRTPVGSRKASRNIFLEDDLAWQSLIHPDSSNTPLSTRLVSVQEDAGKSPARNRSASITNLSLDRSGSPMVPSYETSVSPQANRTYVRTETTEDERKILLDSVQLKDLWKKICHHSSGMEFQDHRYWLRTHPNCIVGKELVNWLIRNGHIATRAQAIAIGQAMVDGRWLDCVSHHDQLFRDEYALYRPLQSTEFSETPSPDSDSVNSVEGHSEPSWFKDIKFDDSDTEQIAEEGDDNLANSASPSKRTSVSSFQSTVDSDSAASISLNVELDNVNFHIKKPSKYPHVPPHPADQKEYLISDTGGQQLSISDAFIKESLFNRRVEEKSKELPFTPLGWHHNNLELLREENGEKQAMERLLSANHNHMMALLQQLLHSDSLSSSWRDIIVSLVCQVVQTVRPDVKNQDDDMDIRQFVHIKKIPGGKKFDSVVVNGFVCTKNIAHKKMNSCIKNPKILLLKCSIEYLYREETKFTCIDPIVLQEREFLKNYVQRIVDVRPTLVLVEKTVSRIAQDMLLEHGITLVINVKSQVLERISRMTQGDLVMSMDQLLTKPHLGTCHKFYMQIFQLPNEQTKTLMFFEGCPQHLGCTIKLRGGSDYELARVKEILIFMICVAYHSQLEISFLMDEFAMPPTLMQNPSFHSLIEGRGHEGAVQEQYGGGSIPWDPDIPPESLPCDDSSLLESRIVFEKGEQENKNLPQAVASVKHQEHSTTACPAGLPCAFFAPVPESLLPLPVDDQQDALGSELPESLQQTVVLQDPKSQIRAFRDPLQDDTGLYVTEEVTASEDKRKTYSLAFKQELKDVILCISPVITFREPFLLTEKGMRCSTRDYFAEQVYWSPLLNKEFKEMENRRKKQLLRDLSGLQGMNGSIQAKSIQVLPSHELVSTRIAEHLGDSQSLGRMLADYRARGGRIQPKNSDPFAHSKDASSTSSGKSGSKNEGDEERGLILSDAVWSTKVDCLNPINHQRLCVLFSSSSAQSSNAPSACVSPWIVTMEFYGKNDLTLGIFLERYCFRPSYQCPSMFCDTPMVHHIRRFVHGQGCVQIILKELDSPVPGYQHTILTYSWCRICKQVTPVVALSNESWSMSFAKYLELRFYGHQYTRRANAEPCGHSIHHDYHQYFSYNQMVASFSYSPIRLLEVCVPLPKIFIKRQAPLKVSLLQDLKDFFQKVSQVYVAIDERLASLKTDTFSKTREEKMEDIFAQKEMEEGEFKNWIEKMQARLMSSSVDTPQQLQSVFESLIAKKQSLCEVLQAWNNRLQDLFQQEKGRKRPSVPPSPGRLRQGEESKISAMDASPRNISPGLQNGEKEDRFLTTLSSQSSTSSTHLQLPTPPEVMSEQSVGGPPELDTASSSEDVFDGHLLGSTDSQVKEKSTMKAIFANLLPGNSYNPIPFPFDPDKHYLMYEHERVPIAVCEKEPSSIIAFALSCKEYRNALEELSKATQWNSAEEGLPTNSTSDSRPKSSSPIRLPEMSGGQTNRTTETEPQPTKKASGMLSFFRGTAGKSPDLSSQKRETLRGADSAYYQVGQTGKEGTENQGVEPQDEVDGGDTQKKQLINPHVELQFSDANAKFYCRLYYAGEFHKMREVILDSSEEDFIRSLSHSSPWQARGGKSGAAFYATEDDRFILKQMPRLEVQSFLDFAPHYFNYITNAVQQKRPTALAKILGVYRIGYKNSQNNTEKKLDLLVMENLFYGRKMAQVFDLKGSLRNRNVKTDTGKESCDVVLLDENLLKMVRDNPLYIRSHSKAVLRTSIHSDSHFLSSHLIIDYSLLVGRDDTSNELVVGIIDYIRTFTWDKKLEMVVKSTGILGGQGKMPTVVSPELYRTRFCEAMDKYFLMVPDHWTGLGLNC

Row | Compound | IC50 [nM]
1 | CN1CCN(c2cc(N3CCOCC3)n3nc(-c4ccncc4)cc3n2)CC1c1ccccc1 (stereo not drawn) [Compound 38, 4-(5-(4-methyl-3-phenylpiperazin-1-yl)-2-(pyridin-4-yl)pyrazolo[1,5-a]pyrimidin-7-yl)morpholine] | 1000 to 10000
2 | Oc1cc(-c2cc(N3CCOCC3)n3nc(-c4ccncc4)cc3n2)nn1-c1cccnc1 [Compound 58, 3-(7-morpholino-2-(pyridin-4-yl)pyrazolo[1,5-a]pyrimidin-5-yl)-1-(pyridin-3-yl)-1H-pyrazol-5-ol] | 10 to 100
3 | c1ccc(-c2nnc(-c3cc(N4CCOCC4)n4nc(-c5ccncc5)cc4n3)o2)cc1 [Compound 130, 4-(5-(5-phenyl-1,3,4-oxadiazol-2-yl)-2-(pyridin-4-yl)pyrazolo[1,5-a]pyrimidin-7-yl)morpholine] | 1000 to 10000
4 | c1cc(-c2cc3nc(-n4ccc(C5CCNCC5)n4)cc(N4CCOCC4)n3n2)ccn1 [Compound 62, 4-(5-(3-(piperidin-4-yl)-1H-pyrazol-1-yl)-2-(pyridin-4-yl)pyrazolo[1,5-a]pyrimidin-7-yl)morpholine] | 100 to 1000
5 | c1ccc(-c2nc(-c3cc(N4CCOCC4)n4nc(-c5ccncc5)cc4n3)ns2)cc1 [Compound 128, 4-(5-(5-phenyl-1,2,4-thiadiazol-3-yl)-2-(pyridin-4-yl)pyrazolo[1,5-a]pyrimidin-7-yl)morpholine] | 10 to 100
6 | c1ccc(Cc2cccnc2-c2cc(N3CCOCC3)n3nc(-c4ccncc4)cc3n2)cc1 [Compound 40, 4-(5-(3-benzylpyridin-2-yl)-2-(pyridin-4-yl)pyrazolo[1,5-a]pyrimidin-7-yl)morpholine] | 1000 to 10000
7 | c1c(-n2cc3c(n2)CCOC3)nc2cc(C3CCCO3)nn2c1N1CCOCC1 (stereo not drawn) [Compound 99, 2-(7-morpholino-2-(tetrahydrofuran-2-yl)pyrazolo[1,5-a]pyrimidin-5-yl)-2,4,6,7-tetrahydropyrano[4,3-c]pyrazole] | > 10000
8 | Cc1cccc(CCOc2cc(N3CCOCC3)n3nc(-c4ccncc4)cc3n2)c1 [Compound 2, 4-(5-(3-methylphenethoxy)-2-(pyridin-4-yl)pyrazolo[1,5-a]pyrimidin-7-yl)morpholine] | 1000 to 10000
9 | CN1CCCC(c2ccn(-c3cc(N4CCOCC4)n4nc(-c5ccncc5)cc4n3)n2)C1 (stereo not drawn) [Compound 68, 4-(5-(3-(1-methylpiperidin-3-yl)-1H-pyrazol-1-yl)-2-(pyridin-4-yl)pyrazolo[1,5-a]pyrimidin-7-yl)morpholine] | 100 to 1000
10 | c1ccc(-c2cc(N3CCOCC3)n3nc(-c4ccncc4)cc3n2)nc1 [Compound 132] | 100 to 1000
11 | CN1CCC(c2ccn(-c3cc(N4CCOCC4)n4nc(-c5ccncc5)cc4n3)n2)CC1 [Compound 63, 4-(5-(3-(1-methylpiperidin-4-yl)-1H-pyrazol-1-yl)-2-(pyridin-4-yl)pyrazolo[1,5-a]pyrimidin-7-yl)morpholine] | 100 to 1000
12 | FC1(F)CNCC(c2ccn(-c3cc(N4CCOCC4)n4nc(-c5ccncc5)cc4n3)n2)C1 (stereo not drawn) [Compound 74, 4-(5-(3-(5,5-difluoropiperidin-3-yl)-1H-pyrazol-1-yl)-2-(pyridin-4-yl)pyrazolo[1,5-a]pyrimidin-7-yl)morpholine] | 1000 to 10000
13 | c1cc(-c2cc3nc(-n4ccc(C5CNC5)n4)cc(N4CCOCC4)n3n2)ccn1 [Compound 73, 4-(5-(3-(Azetidin-3-yl)-1H-pyrazol-1-yl)-2-(pyridin-4-yl)pyrazolo[1,5-a]pyrimidin-7-yl)morpholine] | 100 to 1000
14 | O=C(CCCc1cc(N2CCOCC2)n2nc(-c3ccncc3)cc2n1)c1ccccc1 [Compound 113, 4-(7-morpholino-2-(pyridin-4-yl)pyrazolo[1,5-a]pyrimidin-5-yl)-1-phenylbutan-1-one] | 100 to 1000
15 | CNC(COc1cc(N2CCOCC2)n2nc(-c3ccncc3)cc2n1)c1cccc(C)c1 (stereo not drawn) [Compound 126, N-methyl-2-((7-morpholino-2-(pyridin-4-yl)pyrazolo[1,5-a]pyrimidin-5-yl)oxy)-1-(m-tolyl)ethan-1-amine] | 1000 to 10000
